Reference: US20190388411A1, “NSAID ADMINISTRATION AND RELATED COMPOSITIONS, METHODS AND SYSTEMS” (Alfasigma S.p.A., priority 2013, published 2019)

How the values were obtained:
Assay type in all cases: in vivo, male Albino Sprague Dawley rats
[1] = Mortality in indomethacin-induced enteropathy in rats (Example 16); conditions: indomethacin […] BID + rifaximin product 50 mg/kg BID, 14 days
Protocol: A percentage of 100% of survivors was also recorded in vehicle control group (Group 1).

[2] = Blood hemoglobin levels in indomethacin-induced enteropathy in rats (Example 16)
Protocol: Twenty four hours after the last dose, the rats were euthanized and samples of blood were collected for the assessment of hemoglobin levels.
Hemoglobin analysis was performed on rat blood samples collected as reported above, by means of Quantichrom Hemoglobin assay kit (Bioassay Systems, Hayward, Calif., USA) and expressed as g/dL.

myeloperoxidase (MPO) = experiment: Tissue myeloperoxidase (MPO) levels in jejunum and ileum, ELISA (Example 16)
Protocol: (§1) The whole intestinal tract was removed and processed for the evaluation of tissue myeloperoxidase (MPO) levels and histological analysis of intestinal damage in jejunum and ileum.
Specimens of intestinal tissues (30 mg) were homogenized on ice with a polytron homogenizer (QIAGEN, Milan, Italy) in 0.6 mL of ice-cold lysis buffer (200 mM NaCl, 5 mM EDTA, 10 mM Tris, 10% glycerine, 1 mM PMSF, 1 μg/ml leupeptin and 28 μg/ml aprotinin (pH 7.4). The homogenate was centrifuged 2 times at 4° C. for 15 min at 1.500 g. The supernatant was diluted 1:5 and used for determination of MPO concentration by means of enzyme-linked immunosorbent assay (ELISA) (Hycult Biotech, Uden, Netherlands). All samples were assayed within 2 day after collection. The results were expressed as nanograms of MPO per milligram of intestinal tissue.

[3] = test system: indomethacin - induced microscopic intestinal damage; experiment: Histological analysis of intestinal damage in jejunum and ileum (Example 16); conditions: rats
Protocol: as §1
Pharmacol. Ther. 1993; 7:29-39. Upon removal, the whole intestinal tract was immediately injected with 10% formalin and left in the same fixative solution. After 30 min, it was opened along the anti-mesenteric border, cleaned of fecal content and fixed in 10% formalin for 24 h. Tissue samples were taken as described below and the full length of small intestine was measured.
In particular the following tissue samples were taken • Ileum: 1 cm of tissue proximal to the ileo-cecal valve was discarded and two specimens of 1.5-2 cm of ileum were taken at this edge as well as 5 cm away from the first ileum sample • Proximal jejunum: two specimens of 1.5-2 cm were taken 5 cm away from both the proximal and distal end of the 37.5% of the small intestine total length. • Distal jejunum: two specimens of 1.5-2 cm were taken 5 cm away from both the proximal and distal end of 81% of small intestine's total length.
After fixation, tissues were embedded into paraffin blocks and were cut into consecutive serial 3-μm sections for staining with hematoxylin and eosin. Histological damage was assessed by two observers, blind to the treatment. Each section was given a score of lesion (Type 1 to 3) (TABLE 23).
Quantitative assessment of histological damage was expressed as percentage of the total length of lesions over the total length of the histological section.

[4] = rats, indomethacin […] BID 14 days, alone or with gastroresistant rifaximin 25 or 50 mg/kg BID or rifaximin polymorph alpha 50 mg/kg BID
[5] = indomethacin […] BID 14 days, alone or with gastroresistant rifaximin 25 and 50 mg/kg BID or rifaximin polymorph alpha 50 mg/kg BID

CO[C@H]1/C=C/O[C@@]2(C)Oc3c(C)c(O)c4c(O)c(c5c(nc6cc(C)ccn65)c4c3C2=O)NC(=O)/C(C)=C\C=C\[C@H](C)[C@H](O)[C@@H](C)[C@@H](O)[C@@H](C)[C@H](OC(C)=O)[C@@H]1C [rifaximin polymorph alpha, rifaximin]
Mortality (%) [1]: not associated with deaths | Blood hemoglobin concentration (in words) ([2]; indomethacin […] BID 14 days, alone or with gastroresistant rifaximin at both doses or rifaximin polymorph alpha 50 mg/kg BID): these levels were decreased | Reduction of MPO levels in respect to animals which did not receive rifaximin (myeloperoxidase (MPO); rats treated with indomethacin, 14 days): about 22% | Ileum tissue MPO levels (in words) (myeloperoxidase (MPO); [4]): blunted | Jejunum tissue MPO levels (in words) (myeloperoxidase (MPO); [4]): did not exert any relevant effect | Ileum type 1 lesions, microscopic assessment (in words) [3, 5]: significant reduction of Type 1 lesions | Ileum type 2 lesions, microscopic assessment (in words) [3, 5]: no significant differences were appreciated on the occurrence of type 2 lesions | Jejunum type 1 lesions, microscopic assessment (in words) [3, 5]: reduced the degree of type 1 lesions, although mean values were not significantly different | Lesions / histological damage in ileum and jejunum, overall (in words) ([3]; with indomethacin […] BID 14 days, gastroresistant rifaximin 25 and 50 mg/kg BID, rifaximin polymorph alpha 50 mg/kg BID): effective in the reduction of lesions

CO[C@H]1/C=C/O[C@@]2(C)Oc3c(C)c(O)c4c(O)c(c5c(nc6cc(C)ccn65)c4c3C2=O)NC(=O)/C(C)=C\C=C\[C@H](C)[C@H](O)[C@@H](C)[C@@H](O)[C@@H](C)[C@H](OC(C)=O)[C@@H]1C [rifaximin, (2S, 16Z, 18E, 20S, 21S, 22R, 23R, 24R, 25S, 26S, 27S, 28E)-5,6, 21, 23, 25 pentahydroxy-27-methoxy-2,4, 11, 16, 20, 22, 24, 26-octamethyl-2,7-(epoxypentadeca-(1,11,13)trienimino) benzofuro (4,5-e) pyrido (1,2,-a benzimidazole-1,15(2H)dione, 25-acetate)]
Mortality (%) [1]: do not displayed death | Reduction in hemoglobin values ([2]; end of the treatment period (14 days), in respect to the control): 12% | Jejunum type 2 lesions, microscopic assessment (in words) [3, 5]: significantly reduced Type 2 lesions
